pIC50: −log10 of the molar value.
Tests used:
Assay type in all cases: in vitro ADME
CYP1A2 = molecular target: T1, CYP1A2 (Homo sapiens, UniProt P05177); assay: Human liver microsomal CYP inhibition experiment, CYP1A2
T1 construct: Mixed human liver microsomes (HLM) were purchased from Corning Inc; tissue Corning Inc. or XenoTech, LLC. or other suppliers; host or cells: pooled human liver microsomes
T1 sequence (P05177 1-516): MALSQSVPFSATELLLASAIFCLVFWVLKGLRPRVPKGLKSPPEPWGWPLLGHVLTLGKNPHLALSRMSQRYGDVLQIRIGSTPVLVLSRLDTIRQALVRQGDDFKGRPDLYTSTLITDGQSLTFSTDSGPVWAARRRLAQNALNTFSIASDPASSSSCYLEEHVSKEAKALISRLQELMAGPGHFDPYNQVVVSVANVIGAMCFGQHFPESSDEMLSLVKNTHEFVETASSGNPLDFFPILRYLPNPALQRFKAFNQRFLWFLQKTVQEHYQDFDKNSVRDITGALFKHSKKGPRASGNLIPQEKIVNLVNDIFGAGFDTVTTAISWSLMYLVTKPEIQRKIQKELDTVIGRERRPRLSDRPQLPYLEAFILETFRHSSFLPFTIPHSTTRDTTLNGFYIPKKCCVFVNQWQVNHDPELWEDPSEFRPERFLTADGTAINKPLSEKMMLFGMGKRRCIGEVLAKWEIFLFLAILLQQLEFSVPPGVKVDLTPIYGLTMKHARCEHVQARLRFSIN
Protocol: (§1) Experiment Embodiment 4: Human Liver Microsomal CYP Inhibition Experiment
(§2) The inhibitory effects of the test compound 3A and VK5211 on the activities of human liver microsomal cytochrome P450 isozymes (CYP1A2, CYP2C9, CYP2C19, CYP2D6 and CYP3A4) were determined.
(§3) Mixed human liver microsomes (HLM) were purchased from Corning Inc. (Steuben, New York, USA) or XenoTech, LLC. (Lenexa, Kans., USA) or other suppliers, and were stored at a temperature below −60° C. before use.
(§4) First, the test compound (10.0 mM) was gradient diluted to prepare working solution (100×final concentration), and the concentrations of the working solution were: 5.00, 1.50, 0.500, 0.150, 0.0500, 0.0150, 0.00500 mM, and a working solution of each positive inhibitor of P450 isozymes (CYP1A2, CYP2C9, CYP2C19, CYP2D6, and CYP3A4) and a specific substrate mixture thereof (5 in 1) were prepared at the same time; human liver microsomes stored in a refrigerator at a temperature lower than −60° C. were put on ice to thaw, and when all the human liver microsomes were dissolved, the microsomes were diluted with potassium phosphate buffer (PB) to prepare a working solution of a certain concentration (0.253 mg/mL). […] The concentration of metabolites produced by the probe substrate in the sample was determined by liquid chromatography-tandem mass spectrometry (LC-MS/MS) method. […]

CYP2C9 = molecular target: T2, CYP2C9 (Homo sapiens, UniProt P11712); assay: Human liver microsomal CYP inhibition experiment, CYP2C9
T2 construct: Mixed human liver microsomes (HLM) were purchased from Corning Inc; tissue Corning Inc. or XenoTech, LLC. or other suppliers; host or cells: pooled human liver microsomes
T2 sequence (P11712 whole entry): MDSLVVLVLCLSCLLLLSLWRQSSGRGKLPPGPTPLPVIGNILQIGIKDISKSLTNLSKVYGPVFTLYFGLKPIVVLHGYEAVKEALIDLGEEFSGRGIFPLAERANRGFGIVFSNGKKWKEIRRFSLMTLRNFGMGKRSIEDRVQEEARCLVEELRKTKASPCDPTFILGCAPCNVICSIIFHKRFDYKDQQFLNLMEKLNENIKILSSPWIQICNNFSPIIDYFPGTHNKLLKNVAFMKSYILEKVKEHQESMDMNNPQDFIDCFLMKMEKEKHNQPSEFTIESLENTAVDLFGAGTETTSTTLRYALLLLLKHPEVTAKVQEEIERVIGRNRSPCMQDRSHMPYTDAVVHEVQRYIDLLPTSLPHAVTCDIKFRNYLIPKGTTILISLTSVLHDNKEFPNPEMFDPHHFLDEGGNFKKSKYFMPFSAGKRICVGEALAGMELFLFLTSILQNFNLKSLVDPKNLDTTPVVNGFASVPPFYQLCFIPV
Protocol: as §1, §2, §3, §4

CYP2C19 = molecular target: T3, CYP2C19 (Homo sapiens, UniProt P33261); assay: Human liver microsomal CYP inhibition experiment, CYP2C19
T3 construct: Mixed human liver microsomes (HLM) were purchased from Corning Inc; tissue Corning Inc. or XenoTech, LLC. or other suppliers; host or cells: pooled human liver microsomes
T3 sequence (P33261 whole entry): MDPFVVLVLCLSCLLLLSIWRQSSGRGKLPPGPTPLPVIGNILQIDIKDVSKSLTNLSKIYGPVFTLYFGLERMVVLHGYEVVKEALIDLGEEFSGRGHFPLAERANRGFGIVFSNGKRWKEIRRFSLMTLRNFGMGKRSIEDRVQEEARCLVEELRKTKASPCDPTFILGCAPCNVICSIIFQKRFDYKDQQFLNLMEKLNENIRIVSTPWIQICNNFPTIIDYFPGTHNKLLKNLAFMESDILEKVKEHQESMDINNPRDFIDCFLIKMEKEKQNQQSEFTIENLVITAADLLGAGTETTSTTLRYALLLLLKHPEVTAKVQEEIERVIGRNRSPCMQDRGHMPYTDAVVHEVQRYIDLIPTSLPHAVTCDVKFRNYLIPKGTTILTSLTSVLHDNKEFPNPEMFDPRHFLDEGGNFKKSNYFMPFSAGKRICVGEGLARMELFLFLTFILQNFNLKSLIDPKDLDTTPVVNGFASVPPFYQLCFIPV
Protocol: as §1, §2, §3, §4

CYP2D6 = molecular target: T4, CYP2D6 (Homo sapiens, UniProt P10635); assay: Human liver microsomal CYP inhibition experiment, CYP2D6
T4 construct: Mixed human liver microsomes (HLM) were purchased from Corning Inc; tissue Corning Inc. or XenoTech, LLC. or other suppliers; host or cells: pooled human liver microsomes
T4 sequence (P10635 whole entry): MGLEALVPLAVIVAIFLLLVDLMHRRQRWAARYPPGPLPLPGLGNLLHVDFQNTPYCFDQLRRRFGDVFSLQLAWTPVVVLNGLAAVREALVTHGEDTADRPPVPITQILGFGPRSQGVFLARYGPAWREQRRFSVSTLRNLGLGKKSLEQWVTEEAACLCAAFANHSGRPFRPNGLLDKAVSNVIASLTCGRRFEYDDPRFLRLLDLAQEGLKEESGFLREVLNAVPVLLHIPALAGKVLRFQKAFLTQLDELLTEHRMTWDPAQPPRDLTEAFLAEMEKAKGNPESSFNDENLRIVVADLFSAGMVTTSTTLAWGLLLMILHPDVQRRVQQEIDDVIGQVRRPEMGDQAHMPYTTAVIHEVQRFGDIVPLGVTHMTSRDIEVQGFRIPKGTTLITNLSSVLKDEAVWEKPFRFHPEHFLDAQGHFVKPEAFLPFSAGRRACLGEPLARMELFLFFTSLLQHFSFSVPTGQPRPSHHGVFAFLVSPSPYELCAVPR
Protocol: as §1, §2, §3, §4

CYP3A4 = molecular target: T5, CYP3A4 (Homo sapiens, UniProt P08684); assay: Human liver microsomal CYP inhibition experiment, CYP3A4
T5 construct: Mixed human liver microsomes (HLM) were purchased from Corning Inc; tissue Corning Inc. or XenoTech, LLC. or other suppliers; host or cells: pooled human liver microsomes
T5 sequence (P08684 whole entry): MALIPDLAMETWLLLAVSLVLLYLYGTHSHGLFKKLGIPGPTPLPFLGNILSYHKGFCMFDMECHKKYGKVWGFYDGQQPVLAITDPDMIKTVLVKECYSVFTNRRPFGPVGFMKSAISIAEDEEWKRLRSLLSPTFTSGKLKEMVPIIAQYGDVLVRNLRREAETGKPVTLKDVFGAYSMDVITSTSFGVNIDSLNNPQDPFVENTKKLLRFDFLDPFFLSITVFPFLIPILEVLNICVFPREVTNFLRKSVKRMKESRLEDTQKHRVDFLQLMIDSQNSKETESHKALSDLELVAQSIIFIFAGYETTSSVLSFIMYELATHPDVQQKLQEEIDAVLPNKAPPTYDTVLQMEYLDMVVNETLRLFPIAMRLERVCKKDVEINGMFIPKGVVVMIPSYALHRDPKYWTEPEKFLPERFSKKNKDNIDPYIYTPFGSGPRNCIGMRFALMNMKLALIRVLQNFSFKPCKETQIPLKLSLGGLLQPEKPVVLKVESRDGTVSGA
Protocol: as §1, §2, §3, §4

N#Cc1ccc(N2CCC[C@@H]2[C@@H](O)C(F)(F)F)cc1C(F)(F)F [VK5211, reference compound]
pIC50 (CYP1A2): 5.35 | pIC50 (CYP2C9): 5.23 | pIC50 (CYP2C19): 5.37 | pIC50 (CYP2D6): 5.12 | pIC50 (CYP3A4): 4.35
